From ChEMBL document CHEMBL4145553, “Design, synthesis, and biological evaluation of novel amide and hydrazide based thioether analogs targeting Histone deacteylase (HDAC) enzymes” (Eur J Med Chem, 2018)

Tests used:
Assay type in all cases: functional
COLO 205 = experiment: Growth inhibition of human COLO205 cells assessed as cell growth at 10^-8 M incubated for 48 hrs by sulforhodamine B assay relative to control; settings: COLO 205, 48 h, read-out: Activity
SNB-75 = experiment: Growth inhibition of human SNB75 cells assessed as cell growth at 10^-8 M incubated for 48 hrs by sulforhodamine B assay relative to control; settings: SNB-75, 48 h, read-out: Activity
LOX IMVI = experiment: Growth inhibition of human LOXIMVI cells assessed as cell growth at 10^-8 M incubated for 48 hrs by sulforhodamine B assay relative to control; settings: read-out: Activity
OVCAR-5 = experiment: Growth inhibition of human OVCAR5 cells assessed as cell growth at 10^-8 M incubated for 48 hrs by sulforhodamine B assay relative to control; settings: OVCAR-5, 48 h, read-out: Activity
RPMI-8226 = experiment: Growth inhibition of human RPMI8226 cells assessed as cell growth at 10^-7 M incubated for 48 hrs by sulforhodamine B assay relative to control; settings: RPMI-8226, 48 h, read-out: Activity
SR [1] = experiment: Growth inhibition of human SR cells assessed as cell growth at 10^-7 M incubated for 48 hrs by sulforhodamine B assay relative to control; settings: read-out: Activity
NCI-H522 = experiment: Growth inhibition of human NCI-H522 cells assessed as cell growth at 10^-7 M incubated for 48 hrs by sulforhodamine B assay relative to control; settings: NCI-H522, 48 h, read-out: Activity
HT-29 = experiment: Growth inhibition of human HT-29 cells assessed as cell growth at 10^-7 M incubated for 48 hrs by sulforhodamine B assay relative to control; settings: HT-29, 48 h, read-out: Activity
K562 = experiment: Growth inhibition of human K562 cells assessed as cell growth at 10^-6 M incubated for 48 hrs by sulforhodamine B assay relative to control; settings: K562, 48 h, read-out: Activity
SR [2] = experiment: Growth inhibition of human SR cells assessed as cell growth at 10^-6 M incubated for 48 hrs by sulforhodamine B assay relative to control; settings: read-out: Activity
HOP-62 = experiment: Growth inhibition of human HOP62 cells assessed as cell growth at 10^-6 M incubated for 48 hrs by sulforhodamine B assay relative to control; settings: HOP-62, 48 h, read-out: Activity
NCI-H322M = experiment: Growth inhibition of human NCI-H322M cells assessed as cell growth at 10^-6 M incubated for 48 hrs by sulforhodamine B assay relative to control; settings: read-out: Activity
KM12 = experiment: Growth inhibition of human KM12 cells assessed as cell growth at 10^-6 M incubated for 48 hrs by sulforhodamine B assay relative to control; settings: KM12, 48 h, read-out: Activity
SNB-19 = experiment: Growth inhibition of human SNB19 cells assessed as cell growth at 10^-6 M incubated for 48 hrs by sulforhodamine B assay relative to control; settings: SNB-19, 48 h, read-out: Activity
UACC-257 = experiment: Growth inhibition of human UACC257 cells assessed as cell growth at 10^-6 M incubated for 48 hrs by sulforhodamine B assay relative to control; settings: UACC-257, 48 h, read-out: Activity
UACC-62 = experiment: Growth inhibition of human UACC62 cells assessed as cell growth at 10^-6 M incubated for 48 hrs by sulforhodamine B assay relative to control; settings: UACC-62, 48 h, read-out: Activity
IGROV-1 = experiment: Growth inhibition of human IGROV1 cells assessed as cell growth at 10^-6 M incubated for 48 hrs by sulforhodamine B assay relative to control; settings: IGROV-1, 48 h, read-out: Activity
MCF7 [3] = experiment: Growth inhibition of human MCF7 cells assessed as cell growth at 10^-6 M incubated for 48 hrs by sulforhodamine B assay relative to control; settings: MCF7, 48 h, read-out: Activity
HL-60(TB) = experiment: Growth inhibition of human HL-60(TB) cells assessed as cell growth at 10^-5 M incubated for 48 hrs by sulforhodamine B assay relative to control; settings: HL-60, 48 h, read-out: Activity
HCT-116 = experiment: Growth inhibition of human HCT116 cells assessed as cell growth at 10^-5 M incubated for 48 hrs by sulforhodamine B assay relative to control; settings: HCT-116, 48 h, read-out: Activity
786-0 [4] = experiment: Growth inhibition of human 786-0 cells assessed as cell growth at 10^-5 M incubated for 48 hrs by sulforhodamine B assay relative to control; settings: 786-0, 48 h, read-out: Activity
A498 = experiment: Growth inhibition of human A498 cells assessed as cell growth at 10^-5 M incubated for 48 hrs by sulforhodamine B assay relative to control; settings: A498, 48 h, read-out: Activity
MCF7 [5] = experiment: Growth inhibition of human MCF7 cells assessed as cell growth at 10^-5 M incubated for 48 hrs by sulforhodamine B assay relative to control; settings: MCF7, 48 h, read-out: Activity
A549 [6] = experiment: Growth inhibition of human A549/ATCC cells assessed as cell growth at 10^-4 M incubated for 48 hrs by sulforhodamine B assay relative to control; settings: A549, 48 h, read-out: Activity
SW-620 = experiment: Growth inhibition of human SW620 cells assessed as cell growth at 10^-4 M incubated for 48 hrs by sulforhodamine B assay relative to control; settings: SW-620, 48 h, read-out: Activity
786-0 [7] = experiment: Growth inhibition of human 786-0 cells assessed as cell growth at 10^-4 M incubated for 48 hrs by sulforhodamine B assay relative to control; settings: 786-0, 48 h, read-out: Activity
A549 [8] = experiment: Growth inhibition of human A549/ATCC cells incubated for 48 hrs by sulforhodamine B assay; settings: A549, 48 h
SK-MEL-5 = experiment: Growth inhibition of human SK-MEL-5 cells incubated for 48 hrs by sulforhodamine B assay; settings: SK-MEL-5, 48 h
NCI/ADR-RES = experiment: Growth inhibition of human NCI/ADR-RES cells incubated for 48 hrs by sulforhodamine B assay
HL-60 [9] = experiment: Antiproliferative activity against human HL60 cells after 24 hrs by MTT assay
HL-60 [10] = experiment: Induction of apoptosis in human HL60 cells assessed as early apoptotic cells by propidium iodide/Annexin V staining based flow cytometry (reference value: 0.37%)
MDA-MB-435 = experiment: Cell cycle arrest in human MDA-MB-435 cells assessed as accumulation at S-phase by propidium iodide staining based flow cytometry (reference value: 26.46%)
[11] = read-out: LC50 (the source's name)
[12] = read-out: pLC50 (the source's name) (converted)

CCS/C(Nc1ccccc1)=C(\C#N)C(=O)N/N=C\c1ccc(Cl)cc1Cl showed a growth at 0.01 µM (COLO 205) of 101%, a growth at 0.01 µM (SNB-75) of 88% and a growth at 0.01 µM (LOX IMVI) of 95%. For the same compound, the growth at 0.01 µM (OVCAR-5) was 105%, the growth at 0.1 µM (RPMI-8226) was 94% and the growth at 0.1 µM (SR [1]) was 80%. The growth at 0.1 µM (NCI-H522) was 82%, the growth at 0.1 µM (HT-29) was 101% and the growth at 1 µM (K562) was 47%. The growth at 1 µM (SR [2]) was 76%, the growth at 1 µM (HOP-62) was 76% and the growth at 1 µM (NCI-H322M) was 89%. It also gave a growth at 1 µM (KM12) of 90%, a growth at 1 µM (SNB-19) of 86% and a growth at 1 µM (UACC-257) of 92%. The growth at 1 µM (UACC-62) was 69%, the growth at 1 µM (IGROV-1) was 84% and the growth at 1 µM (MCF7 [3]) was 83%. For the same compound, the growth at 10 µM (HL-60(TB)) was 8%, the growth at 10 µM (HCT-116) was 7% and the growth at 10 µM (786-0 [4]) was 23%. It also gave a growth at 10 µM (A498) of 3%, a growth at 10 µM (MCF7 [5]) of 14% and a growth at 100 µM (A549 [6]) of 18%. The growth at 100 µM (SW-620) was 25%, the growth at 100 µM (786-0 [7]) was 7% and the GI50 (A549 [8]; read-out: GI50) was 4.63 µM. For the same compound, the CC50 (A549 [8]; [11]) was greater than 100 µM, the TGI (A549 [8]; read-out: TGI) was greater than 100 µM and the GI50 (A549 [8]; read-out: pGI50 (converted)) was 4.68 µM. For the same compound, the CC50 (A549 [8]; [12]) was greater than 100 µM, the TGI (A549 [8]; read-out: pTGI) was greater than 100 µM and the GI50 (SK-MEL-5; read-out: GI50) was 2.28 µM. It also gave a CC50 (SK-MEL-5; [11]) greater than 100 µM, a TGI (SK-MEL-5; read-out: TGI) of 8.54 µM and a GI50 (SK-MEL-5; read-out: pGI50 (converted)) of 2.29 µM. The CC50 (SK-MEL-5; [12]) was greater than 100 µM, the TGI (SK-MEL-5; read-out: pTGI (converted)) was 8.51 µM and the GI50 (NCI/ADR-RES; read-out: GI50) was 3.16 µM. The CC50 (NCI/ADR-RES; [11]) was greater than 100 µM, the TGI (NCI/ADR-RES; read-out: TGI) was greater than 100 µM and the GI50 (NCI/ADR-RES; read-out: pGI50 (converted)) was 3.16 µM. For the same compound, the CC50 (NCI/ADR-RES; [12]) was greater than 100 µM, the TGI (NCI/ADR-RES; read-out: pTGI) was greater than 100 µM and the Activity (HL-60 [9]) was “Dose-dependent effect”. It also gave a GI50 (HL-60 [9]; Homo sapiens, HL-60, 24 h) of 3.2 µM, an Activity (HL-60 [10]) of 7.69% and an Activity (MDA-MB-435) of 19.16%.
